Earlier results in publication PMC4931242, “Enhancing digestibility and ethanol yield of Populus wood via expression of an engineered monolignol 4-O-methyltransferase” (Nature Communications, 2016).

Molecular target: T1, MOMT4 (engineered monolignol 4-O-methyltransferase) (Clarkia breweri, UniProt O04385, T133L/E165I/H169F/F175I)
T1 construct: gene IEMT1; engineered quadruple active-site variant of isoeugenol 4-O-methyltransferase; purified enzyme
Assay: 4-O-methylation kinetics
Type: biochemical
Conditions: co-substrate SAM; s.d., n=3

T1 sequence (O04385 whole entry T133L/E165I/H169F/F175I): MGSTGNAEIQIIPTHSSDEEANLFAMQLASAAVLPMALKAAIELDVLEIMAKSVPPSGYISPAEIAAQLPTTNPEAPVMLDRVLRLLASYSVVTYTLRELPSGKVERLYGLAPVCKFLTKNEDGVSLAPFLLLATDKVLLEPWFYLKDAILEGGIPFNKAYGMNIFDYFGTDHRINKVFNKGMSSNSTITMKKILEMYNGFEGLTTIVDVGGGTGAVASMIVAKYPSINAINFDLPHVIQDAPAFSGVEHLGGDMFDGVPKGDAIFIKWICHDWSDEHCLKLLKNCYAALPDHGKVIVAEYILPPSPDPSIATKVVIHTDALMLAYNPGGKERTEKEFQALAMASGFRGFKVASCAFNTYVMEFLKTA

SMILES: COc1cc(/C=C/CO)cc(OC)c1O [sinapyl alcohol]
- Km: 68.1 ± 11.1 µM

SMILES: COc1cc(/C=C/CO)ccc1O [coniferyl alcohol]
- Km: 193 ± 24.5 µM
